Data taken from PubChem BioAssay (NCI).
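Assay format: 96-well plates, 48-hour exposure. The concentration for 50% growth inhibition is given as GI50. TGI marks complete inhibition of growth.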

Assays:
Experiment in all cases: NCI-60 cell line screen, 48 h
SF-295 CNS = tested on: SF-295 CNS
BT-549 breast = tested on: BT-549 breast
MOLT-4 leukemia = tested on: MOLT-4 leukemia
OVCAR-3 ovarian = tested on: OVCAR-3 ovarian
MDA-MB-231 breast = tested on: MDA-MB-231 breast
HOP-92 NSCLC = tested on: HOP-92 NSCLC
OVCAR-8 ovarian = tested on: OVCAR-8 ovarian
RXF 393 renal = tested on: RXF 393 renal
EKVX NSCLC = tested on: EKVX NSCLC
ACHN renal = tested on: ACHN renal
OVCAR-5 ovarian = tested on: OVCAR-5 ovarian
MALME-3M melanoma = tested on: MALME-3M melanoma
K-562 leukemia = tested on: K-562 leukemia
HCT-15 colon = tested on: HCT-15 colon
NCI-H23 lung = tested on: NCI-H23 lung
SNB-19 CNS = tested on: SNB-19 CNS
786-0 renal = tested on: 786-0 renal
SK-MEL-2 melanoma = tested on: SK-MEL-2 melanoma
MDA-MB-468 breast = tested on: MDA-MB-468 breast
T-47D breast = tested on: T-47D breast
CCRF-CEM leukemia = tested on: CCRF-CEM leukemia
UO-31 renal = tested on: UO-31 renal
SF-539 CNS = tested on: SF-539 CNS
HT29 colon = tested on: HT29 colon
MDA-MB-435 = tested on: MDA-MB-435
HCC-2998 colon = tested on: HCC-2998 colon
OVCAR-4 ovarian = tested on: OVCAR-4 ovarian
NCI/ADR-RES ovarian = tested on: NCI/ADR-RES ovarian
SW-620 colon = tested on: SW-620 colon
M14 melanoma = tested on: M14 melanoma
SF-268 CNS = tested on: SF-268 CNS
A498 renal = tested on: A498 renal
NCI-H522 lung = tested on: NCI-H522 lung
COLO 205 colon = tested on: COLO 205 colon
KM12 colon = tested on: KM12 colon
U251 CNS = tested on: U251 CNS
SK-MEL-5 melanoma = tested on: SK-MEL-5 melanoma
A549 NSCLC = tested on: A549 NSCLC
SN12C renal = tested on: SN12C renal
SNB-75 CNS = tested on: SNB-75 CNS
IGROV1 ovarian = tested on: IGROV1 ovarian
PC-3 prostate = tested on: PC-3 prostate
SK-MEL-28 melanoma = tested on: SK-MEL-28 melanoma
CAKI-1 renal = tested on: CAKI-1 renal
SR leukemia = tested on: SR leukemia
MCF7 breast = tested on: MCF7 breast
UACC-62 melanoma = tested on: UACC-62 melanoma
HL-60(TB) leukemia = tested on: HL-60(TB) leukemia
HOP-62 NSCLC = tested on: HOP-62 NSCLC
UACC-257 melanoma = tested on: UACC-257 melanoma
TK-10 renal = tested on: TK-10 renal
LOX IMVI melanoma = tested on: LOX IMVI melanoma
SK-OV-3 ovarian = tested on: SK-OV-3 ovarian
RPMI-8226 leukemia = tested on: RPMI-8226 leukemia
NCI-H460 lung = tested on: NCI-H460 lung
HCT-116 colon = tested on: HCT-116 colon
NCI-H226 lung = tested on: NCI-H226 lung
DU-145 prostate = tested on: DU-145 prostate
HS 578T breast = tested on: HS 578T breast

With `Fc1ccccc1CNc1nc(SCCN2CCOCC2)nc2c1cnn2CC(Cl)c1ccc(Br)cc1` (stereo not drawn) the GI50 (SF-295 CNS) was 3.04 µM, the TGI (SF-295 CNS) was over 100 µM and the GI50 (BT-549 breast) was 20.9 µM. For the same compound, the TGI (BT-549 breast) was over 100 µM, the GI50 (MOLT-4 leukemia) was 3.46 µM and the TGI (MOLT-4 leukemia) was over 100 µM. The GI50 (OVCAR-3 ovarian) was 37.4 µM, the TGI (OVCAR-3 ovarian) was over 100 µM and the GI50 (MDA-MB-231 breast) was 3.6 µM. For the same compound, the TGI (MDA-MB-231 breast) was over 100 µM, the GI50 (HOP-92 NSCLC) was 3.96 µM and the TGI (HOP-92 NSCLC) was over 100 µM. For the same compound, the GI50 (OVCAR-8 ovarian) was 6.36 µM, the TGI (OVCAR-8 ovarian) was over 100 µM and the GI50 (RXF 393 renal) was 1.43 µM. For the same compound, the TGI (RXF 393 renal) was 5.27 µM, the GI50 (EKVX NSCLC) was 5.28 µM and the TGI (EKVX NSCLC) was over 100 µM. The GI50 (ACHN renal) was 4.39 µM, the TGI (ACHN renal) was over 100 µM and the GI50 (OVCAR-5 ovarian) was over 100 µM. The TGI (OVCAR-5 ovarian) was over 100 µM, the GI50 (MALME-3M melanoma) was 2.54 µM and the TGI (MALME-3M melanoma) was 6.89 µM. For the same compound, the GI50 (K-562 leukemia) was 2.55 µM, the TGI (K-562 leukemia) was over 100 µM and the GI50 (HCT-15 colon) was 1.69 µM. It also gave a TGI (HCT-15 colon) of 3.95 µM, a GI50 (NCI-H23 lung) of 7.76 µM and a TGI (NCI-H23 lung) of over 100 µM. It also gave a GI50 (SNB-19 CNS) of 7.08 µM, a TGI (SNB-19 CNS) of over 100 µM and a GI50 (786-0 renal) of 3.31 µM. For the same compound, the TGI (786-0 renal) was 30.6 µM, the GI50 (SK-MEL-2 melanoma) was 2.9 µM and the TGI (SK-MEL-2 melanoma) was 11.7 µM. It also gave a GI50 (MDA-MB-468 breast) of 2.26 µM, a TGI (MDA-MB-468 breast) of 7 µM and a GI50 (T-47D breast) of 2.87 µM. For the same compound, the TGI (T-47D breast) was over 100 µM, the GI50 (CCRF-CEM leukemia) was 3.34 µM and the TGI (CCRF-CEM leukemia) was over 100 µM. It also gave a GI50 (UO-31 renal) of 3.13 µM, a TGI (UO-31 renal) of over 100 µM and a GI50 (SF-539 CNS) of 2.29 µM. It also gave a TGI (SF-539 CNS) of 6.94 µM, a GI50 (HT29 colon) of 1.47 µM and a TGI (HT29 colon) of 3.39 µM. The GI50 (MDA-MB-435) was 4.98 µM, the TGI (MDA-MB-435) was over 100 µM and the GI50 (HCC-2998 colon) was 3.94 µM. The TGI (HCC-2998 colon) was over 100 µM, the GI50 (OVCAR-4 ovarian) was 3.49 µM and the TGI (OVCAR-4 ovarian) was over 100 µM. It also gave a GI50 (NCI/ADR-RES ovarian) of 4.24 µM, a TGI (NCI/ADR-RES ovarian) of over 100 µM and a GI50 (SW-620 colon) of 2.05 µM. The TGI (SW-620 colon) was 5.39 µM, the GI50 (M14 melanoma) was 4.19 µM and the TGI (M14 melanoma) was over 100 µM. It also gave a GI50 (SF-268 CNS) of 6.08 µM, a TGI (SF-268 CNS) of over 100 µM and a GI50 (A498 renal) of 8.94 µM. It also gave a TGI (A498 renal) of over 100 µM, a GI50 (NCI-H522 lung) of 5.16 µM and a TGI (NCI-H522 lung) of over 100 µM. The GI50 (COLO 205 colon) was 2.8 µM, the TGI (COLO 205 colon) was 8.12 µM and the GI50 (KM12 colon) was 3.74 µM. The TGI (KM12 colon) was over 100 µM, the GI50 (U251 CNS) was 5.93 µM and the TGI (U251 CNS) was over 100 µM. For the same compound, the GI50 (SK-MEL-5 melanoma) was 2.87 µM, the TGI (SK-MEL-5 melanoma) was 10.7 µM and the GI50 (A549 NSCLC) was 4.06 µM. It also gave a TGI (A549 NSCLC) of over 100 µM, a GI50 (SN12C renal) of 5.93 µM and a TGI (SN12C renal) of over 100 µM. It also gave a GI50 (SNB-75 CNS) of 2.71 µM, a TGI (SNB-75 CNS) of over 100 µM and a GI50 (IGROV1 ovarian) of over 100 µM. It also gave a TGI (IGROV1 ovarian) of over 100 µM, a GI50 (PC-3 prostate) of 3.73 µM and a TGI (PC-3 prostate) of over 100 µM. It also gave a GI50 (SK-MEL-28 melanoma) of 4.99 µM, a TGI (SK-MEL-28 melanoma) of over 100 µM and a GI50 (CAKI-1 renal) of 3.83 µM. It also gave a TGI (CAKI-1 renal) of over 100 µM, a GI50 (SR leukemia) of 4.8 µM and a TGI (SR leukemia) of over 100 µM. For the same compound, the GI50 (MCF7 breast) was 3.58 µM, the TGI (MCF7 breast) was over 100 µM and the GI50 (UACC-62 melanoma) was 2.09 µM. For the same compound, the TGI (UACC-62 melanoma) was 5.23 µM, the GI50 (HL-60(TB) leukemia) was 4.1 µM and the TGI (HL-60(TB) leukemia) was over 100 µM. It also gave a GI50 (HOP-62 NSCLC) of 7.35 µM, a TGI (HOP-62 NSCLC) of over 100 µM and a GI50 (UACC-257 melanoma) of 3.38 µM. For the same compound, the TGI (UACC-257 melanoma) was 79.1 µM, the GI50 (TK-10 renal) was over 100 µM and the TGI (TK-10 renal) was over 100 µM. For the same compound, the GI50 (LOX IMVI melanoma) was 2.6 µM, the TGI (LOX IMVI melanoma) was 7.91 µM and the GI50 (SK-OV-3 ovarian) was over 100 µM. The TGI (SK-OV-3 ovarian) was over 100 µM, the GI50 (RPMI-8226 leukemia) was 2.67 µM and the TGI (RPMI-8226 leukemia) was 8.25 µM. The GI50 (NCI-H460 lung) was 3.99 µM, the TGI (NCI-H460 lung) was over 100 µM and the GI50 (HCT-116 colon) was 3.67 µM. For the same compound, the TGI (HCT-116 colon) was over 100 µM, the GI50 (NCI-H226 lung) was 3.52 µM and the TGI (NCI-H226 lung) was over 100 µM. The GI50 (DU-145 prostate) was 49.6 µM, the TGI (DU-145 prostate) was over 100 µM and the GI50 (HS 578T breast) was 3.6 µM. For the same compound, the TGI (HS 578T breast) was over 100 µM.
